Values joined by “and” are separate entries in the source; they are usually repeats but may differ in a detail not shown here. Equal entries are not always repeated. Where two headings read alike, the source gives them in different places.
What was measured:
Type in all cases: cell-based
[1] = target: T1, XPO1 (Homo sapiens, UniProt O14980); assay: XPO1 occupancy assay in cultured cell lines (biotinylated probe pull-down, Simple Western); set-up: Cells were collected, washed with PBS, and lysed with RIPA Buffer; endogenous in cells; host or cells: MM.1S
T1 sequence (O14980 whole entry): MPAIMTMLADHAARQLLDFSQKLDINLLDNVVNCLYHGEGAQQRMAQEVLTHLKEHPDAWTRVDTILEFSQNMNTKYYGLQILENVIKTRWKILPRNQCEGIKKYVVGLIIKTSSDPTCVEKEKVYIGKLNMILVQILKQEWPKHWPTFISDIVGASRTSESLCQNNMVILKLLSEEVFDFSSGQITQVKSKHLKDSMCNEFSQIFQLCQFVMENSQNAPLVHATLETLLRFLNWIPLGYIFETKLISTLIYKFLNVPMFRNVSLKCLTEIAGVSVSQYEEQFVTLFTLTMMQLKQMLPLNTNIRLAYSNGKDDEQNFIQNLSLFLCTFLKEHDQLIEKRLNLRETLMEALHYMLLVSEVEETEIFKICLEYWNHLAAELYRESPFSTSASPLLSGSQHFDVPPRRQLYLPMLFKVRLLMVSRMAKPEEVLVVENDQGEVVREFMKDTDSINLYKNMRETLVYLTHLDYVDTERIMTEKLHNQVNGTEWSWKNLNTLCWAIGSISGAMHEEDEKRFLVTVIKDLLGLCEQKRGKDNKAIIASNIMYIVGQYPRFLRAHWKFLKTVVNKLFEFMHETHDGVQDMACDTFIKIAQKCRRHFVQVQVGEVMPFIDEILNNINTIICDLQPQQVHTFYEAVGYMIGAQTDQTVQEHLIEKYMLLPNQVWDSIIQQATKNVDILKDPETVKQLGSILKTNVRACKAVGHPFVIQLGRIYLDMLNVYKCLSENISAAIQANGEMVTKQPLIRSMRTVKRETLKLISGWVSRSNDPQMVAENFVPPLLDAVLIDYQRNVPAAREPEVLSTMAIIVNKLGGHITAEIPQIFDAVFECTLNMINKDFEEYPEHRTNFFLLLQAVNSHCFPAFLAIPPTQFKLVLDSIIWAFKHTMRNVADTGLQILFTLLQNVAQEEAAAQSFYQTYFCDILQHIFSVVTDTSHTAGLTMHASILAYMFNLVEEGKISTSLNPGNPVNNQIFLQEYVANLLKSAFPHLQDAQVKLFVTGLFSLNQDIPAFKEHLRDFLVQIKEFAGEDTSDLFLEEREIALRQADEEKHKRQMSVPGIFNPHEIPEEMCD
Description: b-LMB was tested for the ability to bind XPO1 protein. First, a dose-response curve was generated by exposing MM.1S cells to increasing concentrations of b-LMB (0 – 500 nM) for 1.5 hours in culture. The cells were then collected, lysed, and a portion of the lysate (input) was reserved prior to incubating the remaining lysate with streptavidin-tagged beads overnight. After extensive washes, b-LMB bound XPO1 was eluted from the beads, and XPO1 from both input and bead eluate was detected and quantified by Simple Western on Peggy Sue. Simple Western allows for the chemiluminescent detection of proteins from small volumes of samples that are run through a matrix-filled capillary. The signal is detected by a CCD camera which generates a digital image and then reports quantitative results. […] The protein signals for XPO1 detected by Simple Western in Figure 2A were reported as mean peak areas and were used to compare levels of XPO1 present in each sample to produce a graphical representation of the ratio of free XPO1 detected at each concentration of b-LMB (Figure 2B). “Ratio of bound XPO1” is defined as the ratio of the mean peak area of b-LMB bound XPO1 detected in the eluate compared to the mean peak area of all XPO1 detected in the input lysate, while “free-fraction” refers to the amount of XPO1 not occupied by SINE compound, as described later.
The cells were then collected and processed for the XPO1 occupancy assay. […] For these assays, the “ratio of free-fraction XPO1” is calculated by dividing the mean peak areas of XPO1 occupied by b-LMB (from the eluate) by the total amount of XPO1 (from the input).
(§1) Cells were collected, washed with PBS, and lysed with RIPA Buffer (Thermo Scientific) with protease inhibitors [Complete Ultra Tablets, Mini, EDTA-free, Easy pack (Roche), PhosStop Easy (Roche)]. A portion of the lysate was reserved (input) while the rest was added to washed Dynabeads MyOne Streptavidin T1 (Invitrogen) with RIPA Buffer. Samples were incubated overnight with constant rotation at 4°C. Beads were then washed 5 times with modified RIPA (150 mM NaCl, 50 mM Tris, 1% NP-40, 0.1% Na deoxycholate, 1 mM EDTA, pH 7.8). The reserved portion of lysates (input) and the beads were each mixed with Protein Simple buffer (Protein Simple), DTT (Invitrogen), and fluorescent standards (Protein Simple), then boiled at 95°C for 10 min. Eluates and inputs were analyzed using a capillary western method (Peggy Sue; Protein Simple) with the following primary antibodies: XPO1 (Santa Cruz) and β-actin (Santa Cruz). Capillary westerns were performed by SBH Sciences (Natick, MA). Peak areas corresponding to the protein molecular weight of XPO1 and actin were compared for sample inputs, while the ratio of XPO1 peak areas in eluate to input (ratio of bound or free-fraction XPO1) versus compound concentration were used in XLFit model 205 to calculate 50% and 90% occupancy curves.

[2] = target: T1, XPO1; assay: XPO1 occupancy assay in human PBMCs treated ex vivo; set-up: performed ex vivo on PBMCs isolated from pooled healthy donor blood; host or cells: human PBMCs from pooled healthy donor blood, fresh or revived after cryopreservation; conditions: then 1 nM b-LMB 1 hour
Description: as §1

[3] = test system: LS174T; assay: MTT cytotoxicity assay; conditions: Homo sapiens, read-out: Selinexor IC50 (μM)
[4] = test system: AML2; assay: MTT cytotoxicity assay
[5] = test system: MV-4–11; assay: MTT cytotoxicity assay; conditions: Homo sapiens, MV4-11, read-out: Selinexor IC50 (μM)
[6] = test system: UCH2; assay: MTT cytotoxicity assay; conditions: read-out: Selinexor IC50 (μM)
[7] = test system: nuclear export of the XPO1 cargo protein Rev-GFP in stably transfected U2OS cells; assay: Rev-GFP assay (nuclear retention of Rev-GFP); conditions: Homo sapiens
Excerpt: For this assay we utilized biotinylated LMB (b-LMB) as a tool compound to quantify the amount of XPO1 bound by SINE compounds (Figure 1). b-LMB was synthesized by coupling a biotin tag to LMB. We compared the inhibition of nuclear export and the cytotoxicity of b-LMB to that of the unmodified LMB. […] We then quantified the effects of these compounds on cell death in several cancer cell lines using an MTT cytotoxicity assay (Table 2).
For the typical Rev-GFP assay, U2OS cells stably expressing Rev-GFP [42] were cultured in 96 well plates at 7,500 - 15,000 cells/well. […] After fixation cells were stained with DAPI (Invitrogen) for 10 minutes at room temperature. Cells were imaged with a Nikon fluorescent microscope at 10X magnification and intensity of the GFP and nuclear area were measured and recorded. Cells were scored as either GFP nuclear positive or negative. Number of positive cells were divided by total number of cells in order to calculate percentage of cells with nuclear GFP per well.

[8] = test system: HCT-116; assay: MTT cytotoxicity assay; conditions: Homo sapiens
[9] = read-out: Selinexor IC50 (μM), MTT

Compound: O=C(/C=C\n1cnc(-c2cc(C(F)(F)F)cc(C(F)(F)F)c2)n1)NNc1cnccn1 [Selinexor, selinexor]
- 90% Occupancy selinexor ([1]; A549): 0.56 µM
- 90% Occupancy selinexor ([1]; AML2): 0.22 µM
- 90% Occupancy selinexor ([1]; AML3): 0.46 µM
- 90% Occupancy selinexor ([1]; ASPS-KY): 0.72 µM
- 90% Occupancy selinexor ([1]; HCT-116): 0.76 µM
- 90% Occupancy selinexor ([1]; HEL): 0.31 µM
- 90% Occupancy selinexor ([1]; HT1080): 1.35 µM
- 90% Occupancy selinexor ([1]; HT1080 resistant): 1.67 µM
- 90% Occupancy selinexor ([1]; Kasumi-6): 0.57 µM
- 90% Occupancy selinexor ([1]; LS174T): 0.38 µM
- 90% Occupancy selinexor ([1]; MM.1S): 0.48 µM
- Avg 90% Occupancy (μM) ([1]; MM.1S cells, SINE compound 1 hour, then 1 nM b-LMB […]): 0.52 +/− 0.05 (n = 2) μM
- 90% Occupancy ([1]; MM.1S cells, followed by 0.1 μM KPT-9058 as probe): 0.1 µM and 0.10 µM
- 90% Occupancy selinexor ([1]; MV-4–11): 0.61 µM
- 90% of XPO1 occupancy ([1]; Rev-GFP U2OS cells, selinexor 1 hour, then 1 nM b-LMB […]): 0.48 µM
- 90% Occupancy ([1]; Rev-GFP U2OS, selinexor 4 hours, 0 hours post washout, 1 nM b-LMB): 0.16 µM
- 90% Occupancy ([1]; Rev-GFP U2OS, selinexor 4 hours, 4 hours post washout, 1 nM b-LMB): 2.87 µM
- 90% Occupancy ([1]; Rev-GFP U2OS, selinexor 4 hours, 24 hours post washout, 1 nM b-LMB): > 10 µM
- 90% Occupancy ([1]; Rev-GFP U2OS, selinexor 4 hours, 48 hours post washout, 1 nM b-LMB): > 10 µM
- 90% Occupancy ([1]; Rev-GFP U2OS, selinexor 4 hours, 72 hours post washout, 1 nM b-LMB): > 10 µM
- 90% Occupancy ([1]; Rev-GFP U2OS, selinexor 4 hours, 96 hours post washout, 1 nM b-LMB): > 10 µM
- 90% Occupancy selinexor ([1]; THP-1): 0.94 µM
- 90% Occupancy selinexor ([1]; UCH1): 0.65 µM
- 90% Occupancy selinexor ([1]; UCH2): 0.89 µM
- 90% Occupancy ([2]; fresh human PBMCs, selinexor 1 hour): > 0.5 µM
- 90% Occupancy ([2]; human PBMCs revived from cryopreservation, selinexor 4 hours, washed): 0.04 µM
- IC50 [3]: > 10 µM
- IC50 ([4]; 72 hours, read-out: IC50): 0.09 µM
- IC50 [4, 9]: 0.09 µM
- IC50 [5]: 0.02 µM
- IC50 [6]: 30 µM
- IC50 ([7]; 4 h, read-out: Rev-GFP (nM), U2OS cells stably expressing Rev-GFP, 4 hours treatment): 40 nM
- IC50 ([7]; 4 h, read-out: RevGFP Assay IC50 (μM), Rev-GFP U2OS, selinexor 4 hours, 4 hours post washout): 20 nM
- IC50 ([7]; read-out: Rev-GFP IC50 (μM), U2OS Rev-GFP cells): 40 nM
- IC50 ([7]; read-out: RevGFP Assay IC50 (μM), Rev-GFP U2OS, selinexor 4 hours, 0 hours post washout): 10 nM
- IC50 ([7]; read-out: RevGFP Assay IC50 (μM), Rev-GFP U2OS, selinexor 4 hours, 24 hours post washout): 500 nM
- IC50 ([7]; read-out: RevGFP Assay IC50 (μM), Rev-GFP U2OS, selinexor 4 hours, 48 hours post washout): 1300 nM
- IC50 ([7]; read-out: RevGFP Assay IC50 (μM), Rev-GFP U2OS, selinexor 4 hours, 72 hours post washout): 6800 nM
- IC50 ([7]; read-out: RevGFP Assay IC50 (μM), Rev-GFP U2OS, selinexor 4 hours, 96 hours post washout): 11400 nM
- IC50 ([8]; 72 hours, read-out: IC50): 0.05 µM
- IC50 [8, 9]: 0.05 µM
